From article PMC10619430, “Xenobiotic Exposure and Migraine-Associated Signaling: A Multimethod Experimental Study Exploring Cellular Assays in Combination with Ex Vivo and In Vivo Mouse Models” (Environmental Health Perspectives, 2023) come the findings set out here.

Molecules are shown by their SMILES.

Holding throughout (type): cell-based
Assay [1] concerns the target T1, human TRPA1 channel (hTRPA1) (Homo sapiens, UniProt O75762). Briefly: fluo-4 calcium imaging in hTRPA1-HEK vs control cells at […]. The following applies: read-out: % of ionomycin response at 100 μM.
Assay [2] deals with T1, human TRPA1 channel (hTRPA1). Briefly: fluo-4 calcium imaging in hTRPA1-HEK vs control cells at […] ([…] of ionomycin, […] of SCA response).
Assay [3] has the same target. The assay can be described thus: whole-cell patch clamp in hTRPA1-HEK cells vs control cells; calcium imaging. (The patch-clamp technique gives a direct electrical read-out from membranes.)

T1 sequence (O75762 whole entry): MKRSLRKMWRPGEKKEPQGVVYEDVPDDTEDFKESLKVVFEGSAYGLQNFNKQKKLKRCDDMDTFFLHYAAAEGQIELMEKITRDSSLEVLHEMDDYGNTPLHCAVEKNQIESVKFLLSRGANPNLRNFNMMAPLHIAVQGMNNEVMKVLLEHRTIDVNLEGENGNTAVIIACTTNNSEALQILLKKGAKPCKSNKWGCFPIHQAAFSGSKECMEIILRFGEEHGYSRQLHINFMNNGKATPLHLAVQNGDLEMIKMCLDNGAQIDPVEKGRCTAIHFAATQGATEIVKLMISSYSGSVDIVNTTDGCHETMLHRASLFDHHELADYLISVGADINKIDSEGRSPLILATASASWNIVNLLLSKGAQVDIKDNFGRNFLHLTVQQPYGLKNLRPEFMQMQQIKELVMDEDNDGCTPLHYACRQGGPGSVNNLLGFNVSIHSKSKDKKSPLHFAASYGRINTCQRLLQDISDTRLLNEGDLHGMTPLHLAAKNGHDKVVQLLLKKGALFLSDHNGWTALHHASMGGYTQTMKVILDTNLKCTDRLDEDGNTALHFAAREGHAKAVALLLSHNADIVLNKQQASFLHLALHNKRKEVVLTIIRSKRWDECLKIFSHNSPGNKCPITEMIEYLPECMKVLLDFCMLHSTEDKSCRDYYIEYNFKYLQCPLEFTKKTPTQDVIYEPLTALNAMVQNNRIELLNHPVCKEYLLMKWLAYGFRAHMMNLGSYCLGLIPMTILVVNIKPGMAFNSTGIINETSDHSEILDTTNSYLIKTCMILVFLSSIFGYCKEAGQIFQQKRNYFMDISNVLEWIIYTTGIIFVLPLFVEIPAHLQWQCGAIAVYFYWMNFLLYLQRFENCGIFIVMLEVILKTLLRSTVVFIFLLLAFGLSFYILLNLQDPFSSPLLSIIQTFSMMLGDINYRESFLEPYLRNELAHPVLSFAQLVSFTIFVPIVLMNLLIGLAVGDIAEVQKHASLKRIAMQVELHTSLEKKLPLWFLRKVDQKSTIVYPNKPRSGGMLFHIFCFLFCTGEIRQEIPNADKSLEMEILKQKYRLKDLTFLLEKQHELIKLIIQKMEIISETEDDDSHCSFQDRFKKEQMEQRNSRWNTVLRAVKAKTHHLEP

As to `CC(C)(c1ccc(O)cc1)c1ccc(O)cc1` [BPA, 4-[2-(4-hydroxyphenyl)propan-2-yl]phenol], the activation at 100 µM in assay [1] was 11%.

For `O=C(OCc1ccccc1)c1ccc(O)cc1` [BzPa, Benzyl 4-hydroxybenzoate], the activation at 100 µM in assay [1] came out at 34.2%.

As to `Oc1c(Cl)cc(Cl)c(Cl)c1Cc1c(O)c(Cl)cc(Cl)c1Cl` [HCP, 3,4,6-trichloro-2-[(2,3,5-trichloro-6-hydroxyphenyl)methyl]phenol], the activation at 10 µM in assay [2] worked out at 47%.

The EC50 is the concentration at which the effect is half-maximal. Regarding `Oc1c(Cl)c(Cl)c(Cl)c(Cl)c1Cl` [PCP, 2,3,4,5,6-pentachlorophenol], in assay [3], the EC50 was 15 µM.
